The source of these data is patent US11214803B2, “Modulators of YAP1 expression” (Ionis Pharmaceuticals, Inc., priority 2019, dated 2022).

Strand notation (5' to 3'): a small letter for the sugar, then the base; units joined by * are phosphorothioate-linked, units joined directly phosphodiester-linked; [ ] holds rarer units or linkages, { } end groups; capitals alone tell only the bases. k = constrained ethyl (cEt); [5mC] = 5-methylcytosine; d = 2'-deoxy (DNA)

The first data set relates to Yap1 mRNA. Briefly: Antisense inhibition of human Yap1 in A-431 cells by cEt gapmers, single dose (Example 2, RTS4814). It is filed as cell-based. The following applies: A-431 cells, 5,000 cells per well, free uptake, 2,000 nM modified oligonucleotide, approx. 48 hours, RTS4814, normalized to RIBOGREEN; Table 4; asterisk (*) = targets amplicon region of primer probe set. As for the experimental part: Modified oligonucleotides were designed to target a Yap1 nucleic acid and were tested for their effect on Yap1 mRNA level in vitro. The modified oligonucleotides were tested in a series of experiments that had similar culture conditions. Cultured A-431 cells at a density of 5,000 cells per well were treated using free uptake with 2,000 nM of modified oligonucleotide. After a treatment period of approximately 48 hours, RNA was isolated from the cells and Yap1 mRNA levels were measured by quantitative real-time RTPCR. Human primer probe set RTS4814 was used to measure mRNA levels. Yap1 mRNA levels were normalized to total RNA content, as measured by RIBOGREEN®. Results are presented in the tables below as percent control of the amount of Yap1 mRNA relative to untreated control cells (% UTC). The modified oligonucleotides with percent control values marked with an asterisk (*) target the amplicon region of the primer probe set. Additional assays may be used to measure the potency and efficacy of the modified oligonucleotides targeting the amplicon region.
The newly designed modified oligonucleotides in the Tables below were designed as 3-10-3 cEt gapmers. The gapmers are 16 nucleosides in length, wherein the central gap segment comprises of ten 2′-deoxynucleosides and is flanked by wing segments on the 5′ direction and the 3′ direction comprising three nucleosides each. Each nucleoside in the 5′ wing segment and each nucleoside in the 3′ wing segment has a cEt sugar modification. The internucleoside linkages throughout each gapmer are phosphorothioate (P═S) linkages. All cytosine residues throughout each gapmer are 5-methylcytosines.
“Start site” indicates the 5′-most nucleoside to which the gapmer is targeted in the human gene sequence. “Stop site” indicates the 3′-most nucleoside to which the gapmer is targeted human gene sequence. […] Activity ofthe modified oligonucleotide may be defined in a different experiment.
Turning to “716424 (kG*k[5mC]*kA*dA*dT*dG*dG*dA*d[5mC]*dA*dA*dG*dG*kA*kA*kG; antisense) [Compound 716424]”, the “YAP1 (% UTC)” value stood at 25 % UTC.
As for “716427 (kA*kG*k[5mC]*d[5mC]*d[5mC]*d[5mC]*d[5mC]*dA*dA*dA*dA*dT*dG*kA*kA*k[5mC]; antisense) [Compound 716427]”, the “YAP1 (% UTC)” value is reported as 86 % UTC.
For “716430 (kT*kA*kA*d[5mC]*dT*dG*dG*dG*d[5mC]*dA*dA*dA*dA*kG*kG*kA; antisense) [Compound 716430]”, the “YAP1 (% UTC)” value came to 28 % UTC.
The same measure, in the same setting: to “716433 (kA*kG*k[5mC]*dA*dT*d[5mC]*dT*dG*dA*d[5mC]*dT*dT*d[5mC]*kT*kA*kA; antisense) [Compound 716433]” belongs 20 % UTC; to “716436 (kA*k[5mC]*kT*dG*dG*dA*d[5mC]*dA*dA*dA*dG*dG*dA*kA*kG*k[5mC]; antisense) [Compound 716436]”, 59 % UTC; to “716439 (kG*kT*kA*dT*dT*dT*dA*dA*dT*dA*dT*d[5mC]*dA*kG*kA*kT; antisense) [Compound 716439]”, 77 % UTC.
For “716442 (kG*k[5mC]*kA*d[5mC]*dT*dA*dG*dG*dA*dG*dG*dA*dA*kA*kA*kG; antisense) [Compound 716442]”, the “YAP1 (% UTC)” value was 63 % UTC.
Same read-out and setting: the value for “716445 (kG*kT*kA*dT*dG*dT*dG*dG*d[5mC]*dA*dA*dT*dA*kA*kT*kT; antisense) [Compound 716445]” was 28 % UTC; that for “716448 (k[5mC]*k[5mC]*kG*dA*d[5mC]*dA*dA*dA*dA*d[5mC]*d[5mC]*dA*dA*k[5mC]*k[5mC]*kA; antisense) [Compound 716448]” was 62 % UTC.
As for “716451 (k[5mC]*k[5mC]*k[5mC]*dA*dA*dG*d[5mC]*dT*dA*d[5mC]*dA*dA*d[5mC]*kT*kA*kT; antisense) [Compound 716451]”, the “YAP1 (% UTC)” value came to 67 % UTC.
Turning to “716454 (k[5mC]*kG*kA*dG*dA*dT*dT*dT*dA*dA*dA*dT*dA*kA*kG*kG; antisense) [Compound 716454]”, the “YAP1 (% UTC)” value is on record as 27 % UTC.
The same measure, in the same setting: to “716457 (kA*kA*kA*dG*dG*dA*dT*dA*d[5mC]*dA*dT*dT*d[5mC]*k[5mC]*kA*k[5mC]; antisense) [Compound 716457]” belongs 61 % UTC.
Still for that read-out and setting: to “716460 (kT*kA*kT*dT*d[5mC]*dT*dA*dA*dA*dT*dG*d[5mC]*dA*kT*kA*k[5mC]; antisense) [Compound 716460]” belongs 86 % UTC.
Take “716463 (kG*kA*k[5mC]*dT*dG*d[5mC]*d[5mC]*d[5mC]*d[5mC]*dA*dA*d[5mC]*d[5mC]*kA*kG*kA; antisense) [Compound 716463]”: the “YAP1 (% UTC)” value came to 64 % UTC.
The same measure, in the same setting: to “716466 (kG*kT*kG*dG*dA*dG*d[5mC]*dA*d[5mC]*dT*d[5mC]*d[5mC]*d[5mC]*k[5mC]*kT*kA; antisense) [Compound 716466]” belongs 58 % UTC.

The same data set, now with this note: Table 5; A-431 cells, 5,000 cells per well, free uptake, 2,000 nM modified oligonucleotide, approx. 48 hours; RTS4814; normalized to RIBOGREEN; Yap1 mRNA relative to untreated control cells.
“716422 (kA*kG*kT*dA*dT*d[5mC]*dT*dT*dG*d[5mC]*dT*dG*dG*kA*k[5mC]*kG; antisense) [Compound 716422]”: the “YAP1 (% UTC)” value was 39 % UTC.
Take “716425 (kG*k[5mC]*kA*dA*dT*dA*d[5mC]*dA*dT*dT*dA*dA*d[5mC]*kA*kG*k[5mC]; antisense) [Compound 716425]”: the “YAP1 (% UTC)” value was found to be 71 % UTC.
The same measure, in the same setting: the value for “716428 (kA*k[5mC]*kA*dG*dG*d[5mC]*dT*d[5mC]*dA*d[5mC]*dT*dT*d[5mC]*k[5mC]*k[5mC]*k[5mC]; antisense) [Compound 716428]” was 10 % UTC; that for “716431 (kA*kA*kT*dG*dA*dT*dT*dG*dG*dT*dG*dA*dA*k[5mC]*kA*kT; antisense) [Compound 716431]” was 55 % UTC; that for “716434 (kT*kA*kA*dA*dT*dG*d[5mC]*dT*dG*dT*dG*dA*d[5mC]*kA*kT*kG; antisense) [Compound 716434]” was 44 % UTC.
For the substance “716437 (k[5mC]*k[5mC]*kA*dG*dT*dA*dA*dA*dT*d[5mC]*dA*dT*dG*kT*kT*kT; antisense) [Compound 716437]”, the “YAP1 (% UTC)” value amounted to 41 % UTC.
As to “716440 (k[5mC]*kT*k[5mC]*dT*dT*d[5mC]*dA*dA*dA*dT*d[5mC]*dA*dG*k[5mC]*kA*kT; antisense) [Compound 716440]”, the “YAP1 (% UTC)” value is listed as 45 % UTC.
Same read-out and setting: the value for “716443 (kT*kT*kA*dT*dG*dT*dG*dA*d[5mC]*dT*dA*dA*dT*kG*kA*kT; antisense) [Compound 716443]” was 73 % UTC.
For the substance “716446 (kG*k[5mC]*kA*d[5mC]*dA*d[5mC]*d[5mC]*d[5mC]*dA*d[5mC]*dA*dA*dA*kA*kT*kT; antisense) [Compound 716446]”, the “YAP1 (% UTC)” value was determined as 83 % UTC.
On the same count and under the same terms, to “716449 (kG*kG*kT*d[5mC]*dA*dT*dT*dT*dG*d[5mC]*d[5mC]*dT*dA*kG*kG*kT; antisense) [Compound 716449]” belongs 49 % UTC; to “716452 (kT*kT*kA*d[5mC]*d[5mC]*dA*dA*dA*dA*d[5mC]*dA*dA*d[5mC]*kT*kA*k[5mC]; antisense) [Compound 716452]”, 98 % UTC; to “716455 (kG*kT*kT*dA*dT*dG*dT*dT*dT*dG*dG*dG*dT*kG*kT*kG; antisense) [Compound 716455]”, 17 % UTC.
“716458 (kA*kA*kG*d[5mC]*dA*dG*dG*dG*dA*dA*dA*d[5mC]*d[5mC]*kT*kA*kA; antisense) [Compound 716458]”: the “YAP1 (% UTC)” value is reported as 94 % UTC.
On the same count and under the same terms, the value for “716461 (kA*kT*kA*dA*dA*d[5mC]*dT*dA*d[5mC]*dT*dA*dG*dT*k[5mC]*kA*kT; antisense) [Compound 716461]” was 123 % UTC; that for “716464 (kT*kA*k[5mC]*dT*dT*d[5mC]*dA*dA*dA*d[5mC]*dA*dT*d[5mC]*kT*kG*k[5mC]; antisense) [Compound 716464]” was 62 % UTC.

Staying with this data set, now noted: Table 6; A-431 cells, 5,000 cells per well, free uptake, 2,000 nM modified oligonucleotide, approx. 48 hours; RTS4814; normalized to RIBOGREEN; Yap1 mRNA relative to untreated control cells.
For the substance “716423 (kG*k[5mC]*kA*dA*dA*dA*dT*dA*dG*dA*dG*dG*dA*kT*kT*kA; antisense) [Compound 716423]”, the “YAP1 (% UTC)” value is 43 % UTC.
Still for that read-out and setting: the value for “716426 (kT*kT*kT*dG*dA*dT*dT*d[5mC]*dT*dT*dT*dA*dG*kA*kG*k[5mC]; antisense) [Compound 716426]” was 45 % UTC; that for “716429 (kT*kG*kG*d[5mC]*dA*dT*d[5mC]*d[5mC]*dA*dT*d[5mC]*dA*dT*k[5mC]*k[5mC]*kA; antisense) [Compound 716429]” was 28 % UTC.
For “716432 (kT*k[5mC]*kT*dG*dA*dG*dT*dA*dT*dT*dT*dA*dG*kT*kT*kA; antisense) [Compound 716432]”, the “YAP1 (% UTC)” value came out at 30 % UTC.
With “716435 (kA*k[5mC]*kA*dA*d[5mC]*dT*dG*dT*dT*dG*dA*dA*d[5mC]*kA*kA*kA; antisense) [Compound 716435]”, the “YAP1 (% UTC)” value stood at 45 % UTC.
As to “716438 (kA*kT*kT*dT*dT*dT*dG*dG*d[5mC]*dT*dT*dG*dT*k[5mC]*kA*kG; antisense) [Compound 716438]”, the “YAP1 (% UTC)” value worked out at 32 % UTC.
Regarding “716441 (kG*k[5mC]*k[5mC]*dT*dT*dG*dG*dT*dT*dT*d[5mC]*dA*dG*k[5mC]*kT*kA; antisense) [Compound 716441]”, the “YAP1 (% UTC)” value worked out at 57 % UTC.
Turning to “716447 (k[5mC]*k[5mC]*kA*dA*d[5mC]*d[5mC]*dA*dA*d[5mC]*d[5mC]*d[5mC]*d[5mC]*d[5mC]*k[5mC]*k[5mC]*kA; antisense) [Compound 716447]”, the “YAP1 (% UTC)” value stood at 97 % UTC.
As for “716450 (kA*kA*k[5mC]*dA*dG*dA*dT*dT*d[5mC]*dA*d[5mC]*dT*dA*kA*kT*kA; antisense) [Compound 716450]”, the “YAP1 (% UTC)” value is 83 % UTC.
On the same count and under the same terms, the value for “716453 (kG*kG*kT*dA*dA*dA*dA*dA*dA*dA*dA*d[5mC]*d[5mC]*kA*kG*kG; antisense) [Compound 716453]” was 87 % UTC.
Same read-out and setting: to “716456 (kA*k[5mC]*k[5mC]*dA*d[5mC]*dA*d[5mC]*dT*dA*dT*dT*dA*dT*kA*kA*kA; antisense) [Compound 716456]” belongs 96 % UTC; to “716459 (k[5mC]*kG*k[5mC]*dT*dA*d[5mC]*d[5mC]*dA*dT*dT*dT*dT*dA*kA*kA*kA; antisense) [Compound 716459]”, 121 % UTC; to “716462 (kT*kT*kA*dA*dA*d[5mC]*dT*dA*d[5mC]*d[5mC]*dA*dG*dT*kG*kA*kA; antisense) [Compound 716462]”, 86 % UTC.
Still for that read-out and setting: to “716465 (kG*k[5mC]*kT*d[5mC]*dT*dT*dT*d[5mC]*dT*dA*dG*dA*dA*k[5mC]*kA*k[5mC]; antisense) [Compound 716465]” belongs 82 % UTC.
